Assay results: paper PMC8621172, “Manipulating Estrogenic/Anti-Estrogenic Activity of Triphenylethylenes towards Development of Novel Anti-Neoplastic SERMs” (International Journal of Molecular Sciences, 2021)

How the values were obtained:
[1] = biological target: T1, human ERα (Homo sapiens, UniProt P03372); experiment: Yeast estrogen screen (YES) assay, antagonistic activity (β-galactosidase reporter); type: cell-based, yeast (Saccharomyces cerevisiae); conditions: compounds at 1 µM in presence of 0.5 nM/1 nM E2 (E2 set as 1); triplicates
T1 construct: host or cells: Saccharomyces cerevisiae
T1 sequence (P03372 1-595): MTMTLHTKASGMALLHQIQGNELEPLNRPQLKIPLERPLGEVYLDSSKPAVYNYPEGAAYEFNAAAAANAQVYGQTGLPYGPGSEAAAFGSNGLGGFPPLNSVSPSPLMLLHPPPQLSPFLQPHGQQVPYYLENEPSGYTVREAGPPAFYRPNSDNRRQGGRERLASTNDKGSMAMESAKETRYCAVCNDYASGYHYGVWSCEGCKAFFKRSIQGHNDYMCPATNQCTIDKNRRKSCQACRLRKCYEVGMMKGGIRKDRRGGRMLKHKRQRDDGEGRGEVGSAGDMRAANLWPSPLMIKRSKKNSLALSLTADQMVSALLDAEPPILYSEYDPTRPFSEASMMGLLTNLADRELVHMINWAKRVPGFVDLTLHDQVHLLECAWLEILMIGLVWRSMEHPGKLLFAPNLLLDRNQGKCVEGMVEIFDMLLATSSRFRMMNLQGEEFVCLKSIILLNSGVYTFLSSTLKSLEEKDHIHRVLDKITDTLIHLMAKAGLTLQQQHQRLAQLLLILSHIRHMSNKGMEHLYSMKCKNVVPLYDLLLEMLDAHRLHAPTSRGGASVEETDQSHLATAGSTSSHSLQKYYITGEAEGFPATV
Procedure: All synthesized compounds were tested for their relative activity in β-galactosidase in a yeast estrogen screen (YES) assay. Compounds were tested for their relative estrogenic/anti-estrogenic activities in comparison to positive and negative controls, respectively. YES assay is a gene reporter assay where the DNA sequence of human ERα is integrated into the yeast genome completed with an expression plasmid carrying estrogen response elements (ERE) in the promoter controlling the expression of the reporter gene lacZ (encoding the enzyme β-galactosidase). In the presence of estrogenic compounds, β-galactosidase is synthesized and secreted into the medium, where it converts the chromogenic substrate chlorophenol red-β-D-galactopyranoside (CRPG) from a yellow to a red product, whose absorbance is measured. […] Therefore, we decided to test the novel compounds in an organ-specific in vitro model using the human Ishikawa endometrial adenocarcinoma cell line.
The yeast estrogen receptor assay was supplied by Dr. J.P. Sumpter (Brunel University, Uxbridge, UK) and was used to determine the relative transactivation activity of the human ERα as formerly described. Briefly, Saccharomyces cerevisiae stably transfected with a human ERα and an estrogen-responsive element fused to the reporter gene lacZ encoding for β-galactosidase were treated with the test substances for about 48 h. The β-galactosidase enzymatic activity was measured in a colorimetric assay using a microplate photometer by hydrolysis of the substrate chlorophenol red β-D-galactopyranoside (Roche Diagnostics, Mannheim, Germany), which leads to the formation of chlorophenol red. This can be measured as an increased absorption at 540 nm. All compounds were diluted in DMSO. […] All compounds were tested in technical quadruplicates and biological triplicates. Statistical analysis was performed by analysis of variance (ANOVA) and Tukey’s post-hoc test with the significance level of p < 0.05.

[2] = tested on: Hs578T; experiment: NCI five-dose assay, TNBC cell line Hs578T; type: cell-based, human
Procedure: All compounds were subjected to the NCI in vitro disease-oriented human cells screening panel assay. The human tumor cell lines of the cancer-screening panel are grown in RPMI 1640 medium containing 5% fetal bovine serum and 2 mM L-glutamine. For a typical screening experiment, cells are inoculated into 96-well microtiter plates in 100 μL at plating densities ranging from 5000 to 40,000 cells/well depending on the doubling time of individual cell lines. After cell inoculation, the microtiter plates are incubated at 37 °C, 5% CO2, 95% air, and 100% relative humidity for 24 h prior to the addition of experimental drugs. After 24 h, two plates of each cell line are fixed in situ with TCA to represent a measurement of the cell population for each cell line at the time of drug addition. Experimental drugs are solubilized in dimethyl sulfoxide at 400-fold the desired final maximum test concentration and stored frozen prior to use. At the time of drug addition, an aliquot of frozen concentrate is thawed and diluted to twice the desired final maximum test concentration with complete medium containing 50 μg/mL gentamicin. Additional four, 10-fold, or ½ log serial dilutions are made to provide a total of five drug concentrations plus control. Aliquots of 100 μL of these different drug dilutions are added to the appropriate microtiter wells already containing 100 μL of medium, resulting in the required final drug concentrations. Following drug addition, the plates are incubated for an additional 48 h at 37 °C, 5% CO2, 95% air, and 100% relative humidity. For adherent cells, the assay is terminated by the addition of cold TCA. Cells are fixed in situ by the gentle addition of 50 μL of cold 50% (w/v) TCA (final concentration, 10% TCA) and incubated for 60 min at 4 °C. […] Bound stain is subsequently solubilized with a 10 mM trizma base, and the absorbance is read on an automated plate reader at a wavelength of 515 nm. […] Three response parameters (GI50, TGI, and LC50) were calculated for each cell line.

| Structure (SMILES) | Anti-Estrogenic Activity (relative β-galactosidase activity) [1] | anti-proliferative activity compared to TAM [2] |
| --- | --- | --- |
| CC(=C(c1ccc(Cl)cc1)c1ccc(OCCCN(C)C)cc1)c1ccccc1 [Compound 5, E/Z-(3-{4-[1-(4-Chloro-phenyl)-2-phenyl-propenyl]-phenoxy}-propyl)-dimethyl-amine] | 1.34 ± 0.15 |  |
| CC(=C(c1ccc(Cl)cc1)c1ccc(OCCN2CCCC2)cc1)c1ccccc1 [Compound 6, E/Z-1-(2-{4-[1-(4-Chloro-phenyl)-2-phenyl-propenyl]-phenoxy}-ethyl)-pyrrolidine] | 1.20 ± 0.19 |  |
| CC(=C(c1ccc(Cl)cc1)c1ccc(OCCN2CCCCC2)cc1)c1ccccc1 [Compound 7, E/Z-1-(2-{4-[1-(4-Chloro-phenyl)-2-phenyl-propenyl]-phenoxy}-ethyl)-piperidine] | 1.35 ± 0.16 |  |
| CC(=C(c1ccc(Cl)cc1)c1ccc(OCCN2CCOCC2)cc1)c1ccccc1 [Compound 8, E/Z-4-(2-{4-[1-(4-Chloro-phenyl)-2-phenyl-propenyl]-phenoxy}-ethyl)-morpholine] | 1.11 ± 0.26 |  |
| CC(=C(c1ccc(Cl)cc1)c1ccc(OCCN2CCCCCC2)cc1)c1ccccc1 [Compound 9, E/Z-1-(2-{4-[1-(4-Chloro-phenyl)-2-phenyl-propenyl]-phenoxy}-ethyl)-azepane] | 1.99 ± 0.02 |  |
| COc1ccc(C(C)=C(c2ccc(Cl)cc2)c2ccc(OCCCN(C)C)cc2)cc1 [Compound 10, E/Z-(3-{4-[1-(4-Chloro-phenyl)-2-(4-methoxy-phenyl)-propenyl]-phenoxy}-propyl)-dimethyl-amine] | 3.92 ± 0.58 |  |
| COc1ccc(C(C)=C(c2ccc(Cl)cc2)c2ccc(OCCN3CCCCC3)cc2)cc1F [Compound 17, E/Z-1-(2-{4-[1-(4-Chlorophenyl)-2-(3-fluoro-4-methoxyphenyl)-propenyl]-phenoxy}-ethyl)-piperidine] |  | more potent than TAM |
| COc1ccc(C(C)=C(c2ccc(Cl)cc2)c2ccc(OCCN3CCCCCC3)cc2)cc1F [Compound 19, E/Z-1-(2-{4-[1-(4-Chlorophenyl)-2-(3-fluoro-4-methoxyphenyl)-propenyl]-phenoxy}-ethyl)-azepane] |  | more potent than TAM |

Now from value to compound, other results behind:

| Anti-Estrogenic Activity (relative β-galactosidase activity) [1] | Structure (SMILES) | anti-proliferative activity compared to TAM [2] |
| --- | --- | --- |
| 1.55 ± 0.12 | COc1ccc(C(C)=C(c2ccc(Cl)cc2)c2ccc(OCCN3CCCC3)cc2)cc1 [Compound 11, E/Z-1-(2-{4-[1-(4-Chloro-phenyl)-2-(4-methoxy-phenyl)-propenyl]-phenoxy}-ethyl)-pyrrolidine] |  |
| 2.55 ± 0.41 | COc1ccc(C(C)=C(c2ccc(Cl)cc2)c2ccc(OCCN3CCCCC3)cc2)cc1 [Compound 12, E/Z-1-(2-{4-[1-(4-Chloro-phenyl)-2-(4-methoxy-phenyl)-propenyl]-phenoxy}-ethyl)-piperidine] |  |
| 1.53 ± 0.09 | COc1ccc(C(C)=C(c2ccc(Cl)cc2)c2ccc(OCCN3CCCCCC3)cc2)cc1 [Compound 14, E/Z-1-(2-{4-[1-(4-Chloro-phenyl)-2-(4-methoxy-phenyl)-propenyl]-phenoxy}-ethyl)-azepane] |  |
| 0.97 ± 0.03 | COc1cc(C(C)=C(c2ccc(Cl)cc2)c2ccc(OCCCN(C)C)cc2)ccc1F [Compound 22, E/Z-(3-{4-[1-(4-Chlorophenyl)-2-(4-fluoro-3-methoxyphenyl)-propenyl]-phenoxy}-propyl)-dimethyl-amine] |  |
| 1.06 ± 0.05 | COc1cc(C(C)=C(c2ccc(Cl)cc2)c2ccc(OCCN3CCCC3)cc2)ccc1F [Compound 23, E/Z-1-(2-{4-[1-(4-Chlorophenyl)-2-(4-fluoro-3-methoxyphenyl)-propenyl]-phenoxy}-ethyl)-pyrrolidine] |  |
| 1.19 ± 0.10 | COc1cc(C(C)=C(c2ccc(Cl)cc2)c2ccc(OCCN3CCCCC3)cc2)ccc1F [Compound 24, E/Z-1-(2-{4-[1-(4-Chlorophenyl)-2-(4-fluoro-3-methoxyphenyl)-propenyl]-phenoxy}-ethyl)-piperidine] |  |
| 1.18 ± 0.03 | COc1cc(C(C)=C(c2ccc(Cl)cc2)c2ccc(OCCN3CCOCC3)cc2)ccc1F [Compound 25, E/Z-4-(2-{4-[1-(4-Chlorophenyl)-2-(4-fluoro-3-methoxyphenyl)-propenyl]-phenoxy}-ethyl)-morpholine] |  |
| 1.05 ± 0.12 | COc1cc(C(C)=C(c2ccc(Cl)cc2)c2ccc(OCCN3CCCCCC3)cc2)ccc1F [Compound 26, E/Z-1-(2-{4-[1-(4-Chlorophenyl)-2-(4-fluoro-3-methoxyphenyl)-propenyl]-phenoxy}-ethyl)-azepane] |  |
| 0.86 ± 0.04 | COc1cc(C(C)=C(c2ccc(Cl)cc2)c2ccc(OCCN(C)C)cc2)ccc1F [Compound 27, E/Z-(2-{4-[1-(4-Chlorophenyl)-2-(4-fluoro-3-methoxyphenyl)-propenyl]-phenoxy}-ethyl)-dimethyl-amine] |  |
| 0.86 ± 0.07 | CCN(CC)CCOc1ccc(C(=C(C)c2ccc(F)c(OC)c2)c2ccc(Cl)cc2)cc1 [Compound 28, E/Z-(2-{4-[1-(4-Chlorophenyl)-2-(4-fluoro-3-methoxyphenyl)-propenyl]-phenoxy}-ethyl)-diethyl-amine] | more potent than TAM |
